# According to US20040132817A1, “Use of an histone deacetylase inhibitor for the treatment of diseases associated with an hpv infection” (priority 2001, published 2004):
# What was measured:
# Type in all cases: cell-based, human
# [1] = system: HeLa cells; assay: Quantification of apoptosis, Cell Death Detection ELISA, HeLa cells; settings: 16 hours
# Procedure: (D) Quantification of apoptosis using a commercially available “Cell Death Detection ELISA” kit.
# The rate of apoptosis was determined with the Cell Death Detection kit (ELISA^PLUS, Roche Diagnostics, Mannheim, Germany) following the instructions of the manufacturer.
# Quantification of apoptosis using a commercially available “Cell Death Detection ELISA” kit. The enrichment factor, for untreated control cells arbitrarily set as 1, directly reflects the extent of apoptosis in HeLa cells after treatment with trichostatin A for 16 hours. (Contr.): untreated cells; (DMSO): DMSO control; (TSA): treated with 330 nM trichostatin A for 16 hours.
# [2] = system: p16^INK4; assay: Western blot of p16^INK4 in HeLa cells; settings: 6 mM sodium butyrate, 16 hours
# Procedure: (A) Westem blot analysis. 50 μg of cellular protein were loaded on SDS-PAGE minigels. After electrotransfer, the filters were incubated with p21^CIP1, p27^KIP1, p16^INK4 and p45^SKP2. Equal protein loading was confirmed by a monoclonal actin antibody.
# (§1) Cellular extracts were separated in 8-12% SDS PAGE gels and electrotransferred as described elsewhere (Finzer et al., Oncogene 19 (2000), 3235-3244; Soto et al., Oncogene 18 (1999), 3187-3198). The following antibodies were used: cyclin E (HE 12), cyclin D 1 (HD 11), cdk2 (M2), (D-12; Santa Cruz Biotechnology, Inc., Santa Cruz, USA), cdk4 (C-22), cdk6 (C-21), p27^KIP1 (C-19), (K25020), p45^SKP2 (N-19), HPV18-E7 (N-19) and E2F-1 (KH95) (Santa Cruz Biotechnology, Inc. Santa Cruz, USA), p21^CIP1 (C24420; Transduction Laboratories, Lexington, USA), pRB (NCL-RB; Novocastra, UK), p16^INK4 (15126E, Pharmingen, San Diego, USA) and HPV 16 E7 (ZYMED Lab. Inc., San Francisco, USA). Cyclin A was kindly provided by M. Pagano (Pagano et al., EMBO J. 11 (1992), 961-971). Equal protein transfer and loading was routinely checked by incubating the filters with a monoclonal actin antibody (ICN Biomedicals, Ohio, USA).
# [3] = system: E2F-1; assay: Western blot of E2F-1 in HeLa cells; settings: 16 hours
# Procedure: (B and C) Western blot analysis. 50 μg of protein were separated in 8% (for pRb) and 12% SDS-PAGE gels. After electrotransfer, the filters were incubated with pRb, E2F-1 (B) and (C) p53 specific antibodies. Equal protein loading was confirmed with a monoclonal actin antibody.
# as §1
# Western blot analysis: 50 μg of protein was separated in 8% (for pRb) and 12% SDS-PAGE gels. After electrotransfer, the filters were incubated with pRb, E2F-1 (f) and (g) p53 specific antibodies. […]
# [4] = system: cyclin A; assay: Western blot of cyclin A in HeLa cells; settings: 16 hours
# Procedure: (§2) 50 μg of protein were separated on 12% SDS-PAGE minigels. After electrotransfer, the filters were incubated with antibodies against cyclin D1, cyclin E, cyclin A or cdk2, cdk4 or cdk6 specific antibodies. Equal protein loading was confirmed by reincubating the filters with a monoclonal actin antibody.
# as §1
# 50 μg of protein was separated on 12% SDS-PAGE minigels. […]
# [5] = system: HeLa cells; assay: Flow-cytometric cell cycle analysis of HeLa cells; settings: 6 mM sodium butyrate, 16 hours
# Procedure: “Contr.”: untreated control. The different phases of the cell cycle are indicated (G1, S, G2, respectively). Lower part: quantification of the number of cells during the cell cycle (means of three independent experiments).
# Cells were harvested by trypsinisation, washed twice with phosphate-buffered saline (PBS) and fixed overnight with 70% ethanol. The cells were resuspended in PBS containing 40 μg/ml of DNase-free RNase A and 50 μg/ml propidium iodide and cell cycle distribution was measured in a fluorescence-activated cell sorter (FACSort) from Becton Dickinson, San Jose, USA. DNA content was quantified by using the “Cell Quest” software (Becton Dickinson, San Jose, USA).
# In order to elucidate the molecular effects of histone deacetylase inhibition in the context of HPV16/18-induced carcinogenesis, the HPV18-positive cervical carcinoma cell line HeLa as well as primary human foreskin keratinocytes, which were separately immortalized with amphotropic retroviruses carrying the open reading frames of HPV16 E6, E7 or E6/E7 were used in the experiments of the present invention. In order to assess the specific impact of histone deacetylase inhibition on cell proliferation, flow cytometric analysis of cellular DNA content was carried out (FIG. 1). […]
# [6] = system: cdk4; assay: Western blot of cdk4 in HeLa cells; settings: 6 mM sodium butyrate, 16 hours
# Procedure: as §2, §1
Structure (SMILES),apoptosis (release of histone-associated DNA fragments) ([1]; sodium butyrate),p16^INK4 protein level [2],E2F-1 level ([3]; 6 mM sodium butyrate),cyclin A protein level ([4]; 6 mM sodium butyrate),number of cells in S-phase ([5]; untreated 24.9%) [%],G1 fraction ([5]; untreated 56.8%) [%],cdk4 expression [6],apoptosis (release of histone-associated DNA fragments) ([1]; 330 nM trichostatin A),"apoptosis (release of histone-associated DNA fragments) ([1]; 330 nM trichostatin A, listed as Trichostatin A)",E2F-1 level ([3]; 330 nM trichostatin A),cyclin A protein level ([4]; 330 nM trichostatin A)
CCCC(=O)[O-].[Na+] [sodium butyrate],induce programmed cell death to a significant extent,no reduction was discerned,no consequences on gene expression and translation,selectively downregulates,8.5,75.7,neither the cyclin-dependent kinase 2 (cdk2) nor cdk4 or cdk6 revealed any significant influence on their expression rates,,,,
CC(/C=C/C(=O)NO)=C\[C@@H](C)C(=O)c1ccc(N(C)C)cc1 [trichostatin A],,,,,,,,much stronger,Induction of Apoptosis,without Affecting,Downregulates
